Values joined by “and” are separate entries in the source; they are usually repeats but may differ in a detail not shown here. Equal entries are not always repeated.
Legend:
[1] = tested on: antibodies in the antisera; format: binding, Balb/c mice
[2] = tested on: antibodies in the antisera; format: binding, Balb/c mice; remark: listed apart in the source

aflatoxin B2 was tested, and the Absorbance [1] was 1.08 and 1.06 and 0.99 and 1.07 and 1.01 and 1.02 and 1.04.

In the case of aflatoxin G2, the Absorbance [1] is reported as 1.03 and 1.04 and 1.05 and 1.01 and 1.09 and 1.02 and 1.10.

`COc1cc2c(c3oc4cccc(O)c4c(=O)c13)[C@@H]1C=CO[C@@H]1O2` [aflatoxin biosynthetic precursor ST, Sterigmatocystin] was tested, and the “IC50 value of the antibody for the aflatoxin biosynthetic precursor ST” value [2] was 0.41 ng/mL.

With aflatoxin G1 the Absorbance [1] was 1.07 and 1.05 and 1.01 and 0.98 and 1.04 and 1.09 and 1.11.
